Laboratory results: ChEMBL document CHEMBL4219027, “Lead Optimization of Benzoxepin-Type Selective Estrogen Receptor (ER) Modulators and Downregulators with Subtype-Specific ERα and ERβ Activity” (J Med Chem, 2018)
The source made the active and inactive calls. The calls are words filed in the database; no cut-off is given here.

Tests used:
Estrogen receptor beta [1] = biological target: T1, Estrogen receptor beta (Homo sapiens, UniProt Q92731)
MCF7 [2] = assay: cells; details: Homo sapiens, MCF7, 72 h
Description: Antiproliferative activity against ER-dependent human MCF7 cells after 72 hrs by MTT assay

Homo sapiens = organism: Homo sapiens; assay: Selectivity index, ratio of IC50 for human recombinant full-length estrogen receptor beta to IC50 for human recombinant full-length estrogen receptor alpha
Estrogen receptor [3] = biological target: T2, Estrogen receptor (Homo sapiens, UniProt P03372); assay: Displacement of fluorescein-labeled estradiol (fluoromone) from human recombinant full-length estrogen receptor alpha after 2 hrs by fluorescence polarization assay
T2 sequence (P03372 whole entry): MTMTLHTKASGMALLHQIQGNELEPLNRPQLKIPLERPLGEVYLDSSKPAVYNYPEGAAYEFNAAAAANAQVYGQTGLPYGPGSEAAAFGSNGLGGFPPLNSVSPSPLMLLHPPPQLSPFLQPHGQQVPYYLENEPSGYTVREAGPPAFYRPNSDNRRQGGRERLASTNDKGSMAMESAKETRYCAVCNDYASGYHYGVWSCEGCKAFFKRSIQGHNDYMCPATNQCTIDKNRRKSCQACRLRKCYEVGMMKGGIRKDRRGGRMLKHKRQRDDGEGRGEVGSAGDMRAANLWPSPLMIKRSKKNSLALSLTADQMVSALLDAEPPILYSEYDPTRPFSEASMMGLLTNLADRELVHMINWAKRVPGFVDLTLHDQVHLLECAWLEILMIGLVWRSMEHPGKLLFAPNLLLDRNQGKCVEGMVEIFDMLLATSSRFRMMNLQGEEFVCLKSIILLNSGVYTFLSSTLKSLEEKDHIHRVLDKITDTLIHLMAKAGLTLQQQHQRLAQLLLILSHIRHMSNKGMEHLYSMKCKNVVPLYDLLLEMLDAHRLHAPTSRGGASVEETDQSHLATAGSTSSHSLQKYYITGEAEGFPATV

Estrogen receptor [4] = biological target: T3, Estrogen receptor (Homo sapiens, UniProt Q92731+P03372); assay: Antagonist activity at estrogen receptor alpha/beta in human Ishikawa cells after 72 hrs by alkaline phosphatase assay; assay type: cell-based
Estrogen receptor [5] = biological target: T3, Estrogen receptor; assay: Estrogenic activity at estrogen receptor alpha/beta in human Ishikawa cells at 0.01 uM after 72 hrs by alkaline phosphatase assay relative to estradiol; assay type: ADME, cell-based
MCF-10A [6] = assay: Cytotoxicity against human MCF10A cells assessed as reduction in cell viability at 1 to 2 uM after 24 to 48 hrs by CytoTox 96 non-radioactive LDH cytotoxicity assay; assay type: cell-based
MCF-10A [7] = assay: Cytotoxicity against human MCF10A cells assessed as reduction in cell viability at 10 uM after 24 to 48 hrs by CytoTox 96 non-radioactive LDH cytotoxicity assay; assay type: cell-based
[8] = biological target: T4, Estrogen receptor (Homo sapiens) (UniProt P03372); assay: Downregulation of estrogen receptor alpha protein levels in human MCF7 cell lysate at 10 uM after 24 hrs by Western blot analysis
T4 sequence (whole entry): T2 sequence (P03372 whole entry)

Estrogen receptor beta [9] = biological target: T1, Estrogen receptor beta; assay: Downregulation of estrogen receptor beta protein levels in human MCF7 cell lysate at 10 uM after 24 hrs by Western blot analysis
MCF-10A [10] = assay: Cytotoxicity against human MCF10A cells assessed as reduction in cell viability at 5 uM after 24 hrs by CytoTox 96 non-radioactive LDH cytotoxicity assay; assay type: cell-based
Estrogen receptor [11] = biological target: T3, Estrogen receptor; assay: Estrogenic activity at estrogen receptor alpha/beta in human Ishikawa cells at 10 uM after 72 hrs by alkaline phosphatase assay relative to estradiol; assay type: ADME, cell-based
MCF7 [12] = assay: cells; details: Homo sapiens
Description: Cytotoxicity against human MCF7 cells assessed as reduction in cell viability after 3 to 12 days by MTT assay

[13] = biological target: estrogen receptor alpha/beta (Homo sapiens, UniProt P03372+Q92731); assay: Estrogenic activity at estrogen receptor alpha/beta in human Ishikawa cells at 100 uM after 72 hrs by alkaline phosphatase assay relative to estradiol; assay type: ADME, cell-based; details: read-out: Activity
MCF-10A [14] = assay: Cytotoxicity against human MCF10A cells assessed as reduction in cell viability at 1 to 10 uM after 24 to 48 hrs by CytoTox 96 non-radioactive LDH cytotoxicity assay; assay type: cell-based
Estrogen receptor beta [15] = biological target: T1, Estrogen receptor beta; assay: Antagonist activity at estrogen receptor beta in human Ishikawa cells after 72 hrs by alkaline phosphatase assay; assay type: cell-based
Estrogen receptor beta [16] = biological target: T1, Estrogen receptor beta; assay: Estrogenic activity at estrogen receptor beta in human Ishikawa cells at 1 uM after 72 hrs by alkaline phosphatase assay relative to estradiol; assay type: cell-based

T1 sequence (Q92731 whole entry): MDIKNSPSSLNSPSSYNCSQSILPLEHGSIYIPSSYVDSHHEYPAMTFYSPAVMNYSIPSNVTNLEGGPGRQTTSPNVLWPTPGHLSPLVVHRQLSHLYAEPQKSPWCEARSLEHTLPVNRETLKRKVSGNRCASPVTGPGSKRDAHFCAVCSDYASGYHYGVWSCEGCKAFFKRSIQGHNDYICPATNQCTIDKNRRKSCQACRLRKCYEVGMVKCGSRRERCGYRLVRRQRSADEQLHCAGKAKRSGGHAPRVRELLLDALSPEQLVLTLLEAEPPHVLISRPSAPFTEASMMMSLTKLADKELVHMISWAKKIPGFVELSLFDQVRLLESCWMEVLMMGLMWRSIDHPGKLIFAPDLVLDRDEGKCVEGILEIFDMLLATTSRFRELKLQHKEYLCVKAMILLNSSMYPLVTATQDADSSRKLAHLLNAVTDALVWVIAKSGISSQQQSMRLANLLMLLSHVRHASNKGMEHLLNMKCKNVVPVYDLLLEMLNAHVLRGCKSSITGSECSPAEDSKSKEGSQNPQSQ

Q: CN1CCN(C(=O)/C=C/c2ccc(C3=C(c4ccc(O)cc4)CCOc4cc(F)ccc43)cc2)CC1 was tested. Which IC50 (Estrogen receptor beta [1]) did it give?
A: 354 nM

Q: And the IC50 (MCF7 [2])?
A: 480 nM

Q: And the Ratio IC50 (Homo sapiens)?
A: 6.3

Q: What about the IC50 (Estrogen receptor [3]) of the same molecule?
A: 57 nM

Q: Which IC50 (Estrogen receptor beta [1]) does the source give for COc1ccc2c(c1)OCCC(c1ccc(O)cc1)=C2c1ccc(/C=C/C(=O)O)cc1 here?
A: 119 nM

Q: What about the IC50 (MCF7 [2]) of the same molecule?
A: > 20000 nM

Q: What about the Ratio IC50 (Homo sapiens) of the same molecule?
A: 5.3

Q: What about the IC50 (Estrogen receptor [4]) of the same molecule?
A: > 1000 nM

Q: And the Activity (Estrogen receptor [5])?
A: 15.8%

Q: And the IC50 (Estrogen receptor [3])?
A: 23 nM

Q: Which IC50 (Estrogen receptor beta [1]) does the source give for CC(=O)/C=C/c1ccc(C2=C(c3ccc(O)cc3)CCOc3cc(F)ccc32)cc1 here?
A: 175 nM

Q: What about the IC50 (MCF7 [2]) of the same molecule?
A: 890 nM

Q: And the Ratio IC50 (Homo sapiens)?
A: 3

Q: What about the IC50 (Estrogen receptor [4]) of the same molecule?
A: 450 nM

Q: And the IC50 (Estrogen receptor [3])?
A: 59 nM

Q: CCN(CC)CCNC(=O)/C=C/c1ccc(C2=C(c3ccc(O)cc3)CCOc3cc(F)ccc32)cc1 was tested. Which IC50 (Estrogen receptor beta [1]) did it give?
A: 585 nM

Q: What about the IC50 (MCF7 [2]) of the same molecule?
A: 8800 nM

Q: What about the Ratio IC50 (Homo sapiens) of the same molecule?
A: 0.58

Q: What about the IC50 (Estrogen receptor [3]) of the same molecule?
A: 1020 nM

Q: With O=C(/C=C/c1ccc(C2=C(c3ccc(O)cc3)CCOc3cc(F)ccc32)cc1)N1CCCC1 as the molecule, how does the IC50 (Estrogen receptor beta [1]) read?
A: 2.4 nM

Q: What about the IC50 (MCF7 [2]) of the same molecule?
A: 14000 nM

Q: What about the Ratio IC50 (Homo sapiens) of the same molecule?
A: 0.038

Q: And the IC50 (Estrogen receptor [3])?
A: 67 nM

Q: For O=C(O)/C=C/c1ccc(C2=C(c3ccc(O)cc3)CCOc3cc(F)ccc32)cc1, which IC50 (Estrogen receptor beta [1]) is on record?
A: 72 nM

Q: And the IC50 (MCF7 [2])?
A: 260 nM

Q: And the Ratio IC50 (Homo sapiens)?
A: 5.2

Q: And the IC50 (Estrogen receptor [4])?
A: 1390 nM

Q: What about the IC50 (Estrogen receptor [3]) of the same molecule?
A: 14 nM

Q: Which results are given for Oc1ccc(C2=C(c3ccc(/C=C/c4ccccc4)cc3)c3ccc(F)cc3OCC2)cc1?
A: IC50 (Estrogen receptor beta [1]): 14300 nM; IC50 (MCF7 [2]): 12000 nM; Ratio IC50 (Homo sapiens): 0.6; IC50 (Estrogen receptor [3]): 22400 nM

Q: With O=C(/C=C/c1ccc(C2=C(c3ccc(O)cc3)CCOc3cc(F)ccc32)cc1)c1ccccc1 as the molecule, how does the IC50 (Estrogen receptor beta [1]) read?
A: 447 nM

Q: What about the IC50 (MCF7 [2]) of the same molecule?
A: 970 nM

Q: And the Ratio IC50 (Homo sapiens)?
A: 4.2

Q: And the IC50 (Estrogen receptor [3])?
A: 104 nM

Q: O=C(/C=C/c1ccc(C2=C(c3ccc(O)cc3)CCOc3cc(F)ccc32)cc1)N1CCNCC1 was tested. Which IC50 (Estrogen receptor beta [1]) did it give?
A: 25 nM

Q: What about the IC50 (MCF7 [2]) of the same molecule?
A: 9500 nM

Q: What about the Ratio IC50 (Homo sapiens) of the same molecule?
A: 1.9

Q: And the IC50 (Estrogen receptor [3])?
A: 14 nM

Q: For O=C(O)/C=C/C=C/c1ccc(C2=C(c3ccc(O)cc3)CCOc3cc(F)ccc32)cc1, which Activity (MCF-10A [6]) is on record?
A: Non-Toxic

Q: And the IC50 (Estrogen receptor beta [1])?
A: 0.55 nM

Q: What about the IC50 (MCF7 [2]) of the same molecule?
A: 1600 nM

Q: What about the Ratio IC50 (Homo sapiens) of the same molecule?
A: 0.008

Q: What about the Activity (MCF-10A [7]) of the same molecule?
A: Toxic

Q: And the Activity [8]?
A: Active

Q: And the Activity (Estrogen receptor beta [9])?
A: Active

Q: And the Activity (MCF-10A [10])?
A: 50%

Q: And the IC50 (Estrogen receptor [3])?
A: 71.6 nM

Q: CCC(=C(c1ccc(O)cc1)c1ccc(OCCN(C)C)cc1)c1ccccc1 was tested. Which IC50 (MCF7 [2]) did it give?
A: 110 nM

Q: What does the source list for O=C(/C=C/c1ccc(C2=C(c3ccc(O)cc3)CCOc3cc(F)ccc32)cc1)N1CCN(Cc2ccccc2)CC1?
A: IC50 (Estrogen receptor beta [1]): 72 nM; IC50 (MCF7 [2]): 8400 nM; Ratio IC50 (Homo sapiens): 1; IC50 (Estrogen receptor [3]): 74 nM

Q: O=C(O)/C=C/c1ccc(C2=C(c3ccc(O)cc3)CCSc3cc(F)ccc32)cc1 was tested. Which IC50 (Estrogen receptor beta [1]) did it give?
A: 3.1 nM

Q: What about the IC50 (MCF7 [2]) of the same molecule?
A: 95 nM

Q: What about the Ratio IC50 (Homo sapiens) of the same molecule?
A: 0.8

Q: What about the IC50 (Estrogen receptor [4]) of the same molecule?
A: 180 nM

Q: And the Activity (Estrogen receptor [11])?
A: 1.6%

Q: And the IC50 (Estrogen receptor [3])?
A: 4.1 nM

Q: CCNC(=O)/C=C/c1ccc(C2=C(c3ccc(O)cc3)CCOc3cc(F)ccc32)cc1 was tested. Which IC50 (MCF7 [2]) did it give?
A: 700 nM

Q: With Cc1ccc(N2CCN(C(=O)/C=C/c3ccc(C4=C(c5ccc(O)cc5)CCOc5cc(F)ccc54)cc3)CC2)cc1 as the molecule, how does the IC50 (Estrogen receptor beta [1]) read?
A: 203 nM

Q: What about the IC50 (MCF7 [2]) of the same molecule?
A: 1050 nM

Q: What about the Ratio IC50 (Homo sapiens) of the same molecule?
A: 4.3

Q: And the IC50 (Estrogen receptor [3])?
A: 48 nM

Q: How did the IC50 (Estrogen receptor beta [1]) turn out when O=C(O)/C=C/c1ccc(C2=C(c3ccc(O)cc3)CCOc3ccccc32)cc1 was run?
A: 46 nM

Q: What about the IC50 (MCF7 [2]) of the same molecule?
A: 21000 nM

Q: What about the Ratio IC50 (Homo sapiens) of the same molecule?
A: 2.2

Q: What about the IC50 (Estrogen receptor [4]) of the same molecule?
A: 670 nM

Q: And the IC50 (Estrogen receptor [3])?
A: 21 nM

Q: Which IC50 (MCF7 [2]) does the source give for CCC(=C(c1ccc(O)cc1)c1ccc(/C=C/C(=O)O)cc1)c1ccccc1 here?
A: 1300 nM

Q: And the IC50 (MCF7 [12])?
A: 100 to 1000 nM

Q: O=C(/C=C/c1ccc(C2=C(c3ccc(O)cc3)CCOc3cc(F)ccc32)cc1)Nc1ccccc1 was tested. Which IC50 (Estrogen receptor beta [1]) did it give?
A: 0.94 nM

Q: What about the IC50 (MCF7 [2]) of the same molecule?
A: 1300 nM

Q: What about the Ratio IC50 (Homo sapiens) of the same molecule?
A: 0.087

Q: And the IC50 (Estrogen receptor [3])?
A: 11.7 nM

Q: How did the IC50 (Estrogen receptor beta [1]) turn out when COc1ccc2c(c1)OCCC(c1ccc(O)cc1)=C2c1ccc(OCC(=O)O)cc1 was run?
A: 1010 nM

Q: What about the IC50 (MCF7 [2]) of the same molecule?
A: > 20000 nM

Q: And the Ratio IC50 (Homo sapiens)?
A: 2.4

Q: What about the IC50 (Estrogen receptor [3]) of the same molecule?
A: 429 nM

Q: With O=C(O)COc1ccc(C2=C(c3ccc(O)cc3)CCOc3cc(F)ccc32)cc1 as the molecule, how does the IC50 (Estrogen receptor beta [1]) read?
A: 34 nM

Q: And the IC50 (MCF7 [2])?
A: > 20000 nM

Q: What about the Ratio IC50 (Homo sapiens) of the same molecule?
A: 0.054

Q: And the IC50 (Estrogen receptor [3])?
A: 634 nM

Q: Which activity at 72 h, 100 µM [13] does the source give for CCN(CC)C(=O)/C=C/c1ccc(C2=C(c3ccc(O)cc3)CCOc3cc(F)ccc32)cc1 here?
A: 10%

Q: What about the IC50 (Estrogen receptor beta [1]) of the same molecule?
A: 43 nM

Q: What about the IC50 (MCF7 [2]) of the same molecule?
A: 13000 nM

Q: What about the Ratio IC50 (Homo sapiens) of the same molecule?
A: 0.12

Q: And the IC50 (Estrogen receptor [4])?
A: 9.8 nM

Q: What about the IC50 (Estrogen receptor [3]) of the same molecule?
A: 349 nM

Q: With O=C(O)CCCOc1ccc(C2=C(c3ccc(O)cc3)CCOc3cc(F)ccc32)cc1 as the molecule, how does the Activity (MCF-10A [14]) read?
A: Non-Toxic

Q: And the IC50 (Estrogen receptor beta [1])?
A: 1.23 nM

Q: What about the IC50 (MCF7 [2]) of the same molecule?
A: > 20000 nM

Q: And the Ratio IC50 (Homo sapiens)?
A: 0.008

Q: And the Activity [8]?
A: inactive

Q: What about the Activity (Estrogen receptor beta [9]) of the same molecule?
A: Active

Q: And the IC50 (Estrogen receptor beta [15])?
A: 430 nM

Q: And the IC50 (Estrogen receptor [3])?
A: 147 nM

Q: What about the Activity (Estrogen receptor beta [16]) of the same molecule?
A: 3.2%

Q: Which IC50 (Estrogen receptor beta [1]) does the source give for O=Cc1ccc(C2=C(c3ccc(O)cc3)CCOc3cc(F)ccc32)cc1 here?
A: 395 nM

Q: What about the IC50 (Estrogen receptor [3]) of the same molecule?
A: 407 nM
